Test results reported in patent US20090068290A1, “BIFEPRUNOX DOSES FOR TREATING SCHIZOPHRENIA” (priority 2006, published 2009).

Test: Weight, BMI and waist measurement, Clinical Study Four
Format: in vivo, human
Method: METHODOLOGY: This study was a multinational, multicenter, randomized, double-blind, parallel-group, placebo-controlled, fixed-dose study. The study consisted of a 3- to 6-day antipsychotic-free run-in period, after which patients were randomised to 6 months of double-blind treatment with fixed doses of bifeprunox (20 mg/day (BX20) or 30 mg/day (BX30)) or placebo (PBO). Patients allocated to the BX groups were up-titrated from 0.25 mg/day over 7 days (BX20) or 8 days (BX30), and then continued on these doses for the remainder of the study. […] At predetermined time points, blood samples were obtained for drug concentration analysis of BX and its major metabolites (3′- and 4′-sulfate conjugates of BX), and pharmaco-economic assessments were performed.

[1] = BX20 (bifeprunox 20 mg), Last post-Baseline observation, APTS
[2] = BX20 (bifeprunox 20 mg), Month 3, APTS
[3] = BX20 (bifeprunox 20 mg), Month 6, APTS
[4] = BX20 (bifeprunox 20 mg), Week 6, APTS
[5] = BX20 (bifeprunox 20 mg), visit printed as Baseline, APTS
[6] = BX30 (bifeprunox 30 mg), Last post-Baseline observation, APTS
[7] = BX30 (bifeprunox 30 mg), Month 3, APTS
[8] = BX30 (bifeprunox 30 mg), Month 6, APTS
[9] = BX30 (bifeprunox 30 mg), Week 6, APTS

SMILES: O=c1[nH]c2cccc(N3CCN(Cc4cccc(-c5ccccc5)c4)CC3)c2o1 [Bifeprunox, 7-[4-([1,1′-biphenyl]-3-ylmethyl)-1-piperazinyl]-2(3H)-benzoxazolone]
- BMI, Mean [1]: 24.3
- BMI, Median [1]: 23.7
- Change from Baseline in BMI, Mean [1]: −0.4
- Change from Baseline in BMI, Median [1]: 0.0
- Change from Baseline in Weight, Mean [1]: -1.0 kg
- Change from Baseline in Weight, Median [1]: 0.0 kg
- Waist measurement, Mean [1]: 81.6
- Waist measurement, Median [1]: 79.5
- Weight PCS High (Increase from baseline >= 7%), (%) [1]: (2.8) %
- Weight PCS Low (Decrease from baseline >= 7%), (%) [1]: (9.1) %
- Weight, Mean [1]: 69.7 kg
- Weight, Median [1]: 68.0 kg
- BMI, Mean [2]: 23.9
- BMI, Median [2]: 23.1
- Change from Baseline in BMI, Mean [2]: −0.2
- Change from Baseline in BMI, Median [2]: 0.0
- Change from Baseline in Waist Measurement, Mean [2]: −1.1
- Change from Baseline in Waist Measurement, Median [2]: 0.0
- Change from Baseline in Weight, Mean [2]: -0.6 kg
- Change from Baseline in Weight, Median [2]: 0.0 kg
- Waist measurement, Mean [2]: 79.5
- Waist measurement, Median [2]: 76.5
- Weight PCS High (Increase from baseline >= 7%), (%) [2]: (0.0) %
- Weight, Mean [2]: 68.1 kg
- Weight, Median [2]: 66.0 kg
- BMI, Mean [3]: 23.9
- BMI, Median [3]: 23.1
- Change from Baseline in BMI, Mean [3]: −0.2
- Change from Baseline in BMI, Median [3]: 0.0
- Change from Baseline in Waist Measurement, Mean [3]: −0.9
- Change from Baseline in Waist Measurement, Median [3]: 0.0
- Change from Baseline in Weight, Mean [3]: -0.6 kg
- Change from Baseline in Weight, Median [3]: 0.0 kg
- Waist measurement, Mean [3]: 79.4
- Waist measurement, Median [3]: 77.7
- Weight PCS High (Increase from baseline >= 7%), (%) [3]: (6.8) %
- Weight PCS Low (Decrease from baseline >= 7%), (%) [3]: (10.2) %
- Weight, Mean [3]: 68.2 kg
- Weight, Median [3]: 67.0 kg
- BMI, Mean [4]: 24.3
- BMI, Median [4]: 23.8
- Change from Baseline in BMI, Mean [4]: −0.2
- Change from Baseline in BMI, Median [4]: 0.0
- Change from Baseline in Waist Measurement, Mean [4]: −1.1
- Change from Baseline in Waist Measurement, Median [4]: 0.0
- Change from Baseline in Weight, Mean [4]: -0.6 kg
- Change from Baseline in Weight, Median [4]: 0.0 kg
- Waist measurement, Mean [4]: 81.6
- Waist measurement, Median [4]: 78.0
- Weight PCS High (Increase from baseline >= 7%), (%) [4]: (0.0) %
- Weight PCS Low (Decrease from baseline >= 7%), (%) [4]: (4.8) %
- Weight, Mean [4]: 69.7 kg
- Weight, Median [4]: 67.0 kg
- Change from Baseline in Waist Measurement, Mean [5]: −0.0
- Change from Baseline in Waist Measurement, Median [5]: 0.0
- BMI, Mean [6]: 24.5
- BMI, Median [6]: 23.7
- Change from Baseline in BMI, Mean [6]: −0.4
- Change from Baseline in BMI, Median [6]: 0.0
- Change from Baseline in Waist Measurement, Mean [6]: −0.4
- Change from Baseline in Waist Measurement, Median [6]: 4.4
- Change from Baseline in Weight, Mean [6]: -1.2 kg
- Change from Baseline in Weight, Median [6]: 0.0 kg
- Waist measurement, Mean [6]: 82.6
- Waist measurement, Median [6]: 80.4
- Weight PCS High (Increase from baseline >= 7%), (%) [6]: (2.7) %
- Weight PCS Low (Decrease from baseline >= 7%), (%) [6]: (9.5) %
- Weight, Mean [6]: 70.9 kg
- Weight, Median [6]: 68.5 kg
- BMI, Mean [7]: 24.4
- BMI, Median [7]: 23.4
- Change from Baseline in BMI, Median [7]: −0.1
- Change from Baseline in Waist Measurement, Mean [7]: −0.4
- Change from Baseline in Waist Measurement, Median [7]: 0.0
- Change from Baseline in Weight, Mean [7]: -1.1 kg
- Change from Baseline in Weight, Median [7]: -0.5 kg
- Waist measurement, Mean [7]: 81.6
- Waist measurement, Median [7]: 79.5
- Weight PCS Low (Decrease from baseline >= 7%), (%) [7]: (11.4) %
- Weight, Mean [7]: 70.1 kg
- Weight, Median [7]: 68.0 kg
- BMI, Mean [8]: 24.4
- BMI, Median [8]: 23.7
- Change from Baseline in BMI, Mean [8]: −0.0
- Change from Baseline in BMI, Median [8]: 0.0
- Change from Baseline in Waist Measurement, Mean [8]: −0.0
- Change from Baseline in Waist Measurement, Median [8]: 0.1
- Change from Baseline in Weight, Mean [8]: -0.1 kg
- Change from Baseline in Weight, Median [8]: 0.0 kg
- Waist measurement, Mean [8]: 81.1
- Waist measurement, Median [8]: 78.0
- Weight PCS High (Increase from baseline >= 7%), (%) [8]: (7.3) %
- Weight PCS Low (Decrease from baseline >= 7%), (%) [8]: (7.3) %
- Weight, Mean [8]: 71.4 kg
- Weight, Median [8]: 70.0 kg
- BMI, Mean [9]: 24.8
- BMI, Median [9]: 23.9
- Change from Baseline in BMI, Mean [9]: −0.3
- Change from Baseline in BMI, Median [9]: 0.0
- Change from Baseline in Waist Measurement, Mean [9]: −0.0
- Change from Baseline in Waist Measurement, Median [9]: 0.0
- Change from Baseline in Weight, Mean [9]: -0.9 kg
- Change from Baseline in Weight, Median [9]: 0.0 kg
- Waist measurement, Mean [9]: 83.9
- Waist measurement, Median [9]: 80.0
- Weight PCS High (Increase from baseline >= 7%), (%) [9]: (0.0) %
- Weight PCS Low (Decrease from baseline >= 7%), (%) [9]: (4.7) %
- Weight, Mean [9]: 72.2 kg
- Weight, Median [9]: 70.0 kg
